This note sets out measurements from PubChem BioAssay AID252 (DTP/NCI, 2004).

“And” between values parts separate entries of the source, which are not always exact repeats. Identical values can stand only once. Toxic doses and inconclusive results are not listed.

The experiment deals with BDF1 mice, intracerebral L1210 leukemia, survival T/C. In words: NCI In Vivo Anticancer Drug Screen. Data for tumor model L1210 Leukemia (intracerebral) in B6D2F1 (BDF1) mice. As to conditions: higher = longer survival. A digest of the protocol: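 Tumour was transplanted, animals received compound or vehicle, then survival in each group was measured and treated divided by control.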

[1] abbreviates: endpoint: mean survival time, dose: 22.0 mg/kg/injection, schedule: Q01DX015 (ip), vehicle: saline.

`O=P1(N(CCCl)CCCl)NCCCO1` (centres undefined): the T/C was 116 % of control (endpoint: mean survival time, dose: 17.5 mg/kg/injection, schedule: Q01DX Z (ip), vehicle: saline); 112 % of control under setting [1]; 121 % of control (endpoint: mean survival time, dose: 25.0 mg/kg/injection, schedule: Q01DX Z (ip), vehicle: saline); 104 % of control and 118 % of control (endpoint: mean survival time, dose: 28.0 mg/kg/injection, schedule: Q01DX001 (ip), vehicle: saline); 123 % of control (endpoint: mean survival time, dose: 33.5 mg/kg/injection, schedule: Q01DX015 (ip), vehicle: saline); 151 % of control (endpoint: mean survival time, dose: 39.0 mg/kg/injection, schedule: Q01DX009 (sc), vehicle: saline). Besides, the T/C by setting is: (endpoint: mean survival time, dose: 50.0 mg/kg/injection, schedule: Q01DX001 (ip), vehicle: DMSO) 111 % of control and 119 % of control and 121 % of control; (endpoint: mean survival time, dose: 50.0 mg/kg/injection, schedule: Q01DX001 (ip), vehicle: Klucel (hydroxypropylcellulose) (HPC)) 119 % of control and 121 % of control; (endpoint: mean survival time, dose: 50.0 mg/kg/injection, schedule: Q01DX001 (ip), vehicle: water) 111 % of control; (endpoint: mean survival time, dose: 50.0 mg/kg/injection, schedule: Q08DX002 (ip), vehicle: saline) 115 % of control; (endpoint: mean survival time, dose: 59.0 mg/kg/injection, schedule: Q01DX001 (ip), vehicle: saline) 117 % of control; (endpoint: mean survival time, dose: 65.0 mg/kg/injection, schedule: Q01DX009 (sc), vehicle: saline) 151 % of control. The T/C runs as follows: (endpoint: mean survival time, dose: 100.0 mg/kg/injection, schedule: Q01DX001 (ip), vehicle: water) 112 % of control; (endpoint: mean survival time, dose: 100.0 mg/kg/injection, schedule: Q01DX Z (ip), vehicle: saline) 110 % of control; (endpoint: mean survival time, dose: 100.0 mg/kg/injection, schedule: Q08DX002 (ip), vehicle: saline) 117 % of control; (endpoint: mean survival time, dose: 108.0 mg/kg/injection, schedule: Q01DX009 (sc), vehicle: saline) 110 % of control; (endpoint: mean survival time, dose: 118.0 mg/kg/injection, schedule: Q01DX001 (ip), vehicle: saline) 158 % of control; (endpoint: mean survival time, dose: 200.0 mg/kg/injection, schedule: Q01DX001 (ip), vehicle: DMSO) 110 % of control. Moreover, the T/C is, setting by setting: (endpoint: mean survival time, dose: 200.0 mg/kg/injection, schedule: Q01DX001 (ip), vehicle: Klucel (hydroxypropylcellulose) (HPC)) 119 % of control; (endpoint: mean survival time, dose: 200.0 mg/kg/injection, schedule: Q01DX001 (ip), vehicle: water) 119 % of control; (endpoint: mean survival time, dose: 230.0 mg/kg/injection, schedule: Q01DX001 (ip), vehicle: saline) 157 % of control; (endpoint: mean survival time, dose: 234.0 mg/kg/injection, schedule: Q01DX001 (ip), vehicle: saline) 168 % of control; (endpoint: mean survival time, dose: 300.0 mg/kg/injection, schedule: Q01DX001 (ip), vehicle: saline) 114 % of control; (endpoint: mean survival time, dose: 400.0 mg/kg/injection, schedule: Q08DX002 (ip), vehicle: saline) 102 % of control. In addition, the T/C was 152 % of control and 172 % of control (endpoint: mean survival time, dose: 468.0 mg/kg/injection, schedule: Q01DX001 (ip), vehicle: saline); 106 % of control (endpoint: mean survival time, dose: 500.0 mg/kg/injection, schedule: Q01DX001 (ip), vehicle: saline); 151 % of control (endpoint: mean survival time, dose: 560.0 mg/kg/injection, schedule: Q01DX001 (ip), vehicle: saline); 119 % of control (endpoint: median survival time, dose: 1000.0 mg/kg/injection, schedule: Q01DX001 (oral), vehicle: saline); 516 % of control (endpoint: median survival time, dose: 2000.0 mg/kg/injection, schedule: Q01DX001 (oral), vehicle: saline); 45 % of control (endpoint: median survival time, dose: 8000.0 mg/kg/injection, schedule: Q01DX001 (oral), vehicle: saline). Further, the T/C (endpoint: median survival time, dose: 16000.0 mg/kg/injection, schedule: Q01DX001 (oral), vehicle: saline) is 43 % of control.
As for `C[C@H](CN1CC(=O)NC(=O)C1)N1CC(=O)NC(=O)C1`, the T/C was 107 % of control (endpoint: median survival time, dose: 8.0 mg/kg/injection, schedule: Q01DX009 (ip), vehicle: water); 115 % of control and 116 % of control (endpoint: median survival time, dose: 16.0 mg/kg/injection, schedule: Q01DX009 (ip), vehicle: water); 124 % of control (endpoint: median survival time, dose: 32.0 mg/kg/injection, schedule: Q01DX009 (ip), vehicle: water); 123 % of control (endpoint: median survival time, dose: 64.0 mg/kg/injection, schedule: Q01DX009 (ip), vehicle: water); 109 % of control and 95 % of control (endpoint: median survival time, dose: 256.0 mg/kg/injection, schedule: Q01DX009 (ip), vehicle: water).
Turning to `COc1ccc(NC(=O)N(CCCl)N=O)cc1`, the T/C runs as follows: (endpoint: mean survival time, dose: 4.4 mg/kg/injection, schedule: Q01DX015 (ip), vehicle: saline) 105 % of control; (endpoint: mean survival time, dose: 6.6 mg/kg/injection, schedule: Q01DX015 (ip), vehicle: saline) 113 % of control; (endpoint: mean survival time, dose: 9.9 mg/kg/injection, schedule: Q01DX001 (ip), vehicle: carboxymethylcellulose (CMC)) 104 % of control; (endpoint: mean survival time, dose: 10.0 mg/kg/injection, schedule: Q01DX015 (ip), vehicle: saline) 113 % of control; (endpoint: mean survival time, dose: 15.0 mg/kg/injection, schedule: Q01DX001 (ip), vehicle: saline) 102 % of control; (endpoint: mean survival time, dose: 15.0 mg/kg/injection, schedule: Q01DX015 (ip), vehicle: saline) 124 % of control. In addition, the T/C by setting is: (endpoint: mean survival time, dose: 19.8 mg/kg/injection, schedule: Q01DX001 (ip), vehicle: carboxymethylcellulose (CMC)) 108 % of control; under setting [1], 104 % of control; (endpoint: mean survival time, dose: 30.0 mg/kg/injection, schedule: Q01DX001 (ip), vehicle: saline) 105 % of control; (endpoint: mean survival time, dose: 39.6 mg/kg/injection, schedule: Q01DX001 (ip), vehicle: carboxymethylcellulose (CMC)) 102 % of control; (endpoint: mean survival time, dose: 60.0 mg/kg/injection, schedule: Q01DX001 (ip), vehicle: saline) 108 % of control; (endpoint: mean survival time, dose: 120.0 mg/kg/injection, schedule: Q01DX001 (ip), vehicle: saline) 113 % of control. In addition, the T/C (endpoint: mean survival time, dose: 240.0 mg/kg/injection, schedule: Q01DX001 (ip), vehicle: saline) was 111 % of control.
In the case of `CC1CCCC(NC(=O)N(CCCl)N=O)C1` (centres undefined), the T/C (endpoint: mean survival time, dose: 27.0 mg/kg/injection, schedule: Q01DX001 (ip), vehicle: other) was 174 % of control; the T/C (endpoint: mean survival time, dose: 42.0 mg/kg/injection, schedule: Q01DX001 (ip), vehicle: other) was 150 % of control and 251 % of control; the T/C (endpoint: mean survival time, dose: 62.0 mg/kg/injection, schedule: Q01DX001 (ip), vehicle: other) is 256 % of control and 273 % of control; the T/C (endpoint: mean survival time, dose: 71.0 mg/kg/injection, schedule: Q01DX001 (ip), vehicle: other) is 261 % of control; the T/C (endpoint: mean survival time, dose: 93.0 mg/kg/injection, schedule: Q01DX001 (ip), vehicle: other) is 205 % of control and 223 % of control; the T/C (endpoint: mean survival time, dose: 286.0 mg/kg/injection, schedule: Q01DX001 (ip), vehicle: other) was 92 % of control.
For `COc1cccnc1/C=N/NC(N)=S`, the T/C (endpoint: median survival time, dose: 1.5 mg/kg/injection, schedule: Q01DX009 (ip), vehicle: saline with Tween-80) is 101 % of control; the T/C (endpoint: median survival time, dose: 3.0 mg/kg/injection, schedule: Q01DX009 (ip), vehicle: saline with Tween-80) is 103 % of control; the T/C (endpoint: median survival time, dose: 6.0 mg/kg/injection, schedule: Q01DX009 (ip), vehicle: saline with Tween-80) was 110 % of control; the T/C (endpoint: median survival time, dose: 12.0 mg/kg/injection, schedule: Q01DX009 (ip), vehicle: saline with Tween-80) is 153 % of control.
For `O=NN(CCCl)C(=O)Nc1ccccc1Cl`, the T/C was 100 % of control (endpoint: mean survival time, dose: 22.0 mg/kg/injection, schedule: Q01DX001 (ip), vehicle: carboxymethylcellulose (CMC)); 89 % of control (endpoint: mean survival time, dose: 33.0 mg/kg/injection, schedule: Q01DX001 (ip), vehicle: carboxymethylcellulose (CMC)); 100 % of control (endpoint: mean survival time, dose: 50.0 mg/kg/injection, schedule: Q01DX001 (ip), vehicle: carboxymethylcellulose (CMC)).
For `CS(=O)(=O)Nc1ccc(Nc2c3ccccc3nc3ccccc23)cc1`, the T/C (endpoint: mean survival time, dose: 10.0 mg/kg/injection, schedule: Q01DX009 (ip), vehicle: saline) is 104 % of control; the T/C (endpoint: mean survival time, dose: 10.0 mg/kg/injection, schedule: Q01DX009 (sc), vehicle: saline) was 92 % of control; the T/C (endpoint: mean survival time, dose: 20.0 mg/kg/injection, schedule: Q01DX009 (ip), vehicle: saline) is 101 % of control; the T/C (endpoint: mean survival time, dose: 20.0 mg/kg/injection, schedule: Q01DX009 (sc), vehicle: saline) was 96 % of control; the T/C (endpoint: mean survival time, dose: 40.0 mg/kg/injection, schedule: Q01DX009 (ip), vehicle: saline) was 96 % of control; the T/C (endpoint: mean survival time, dose: 40.0 mg/kg/injection, schedule: Q01DX009 (sc), vehicle: saline) is 90 % of control. Besides, the T/C (endpoint: mean survival time, dose: 80.0 mg/kg/injection, schedule: Q01DX009 (sc), vehicle: saline) was 96 % of control.
On to `CCOC(=O)[C@H]1CCC[C@@H](NC(=O)N(CCCl)N=O)C1`, for which the T/C runs as follows: (endpoint: mean survival time, dose: 14.0 mg/kg/injection, schedule: Q01DX001 (ip), vehicle: other) 103 % of control; (endpoint: mean survival time, dose: 21.0 mg/kg/injection, schedule: Q01DX001 (ip), vehicle: other) 104 % of control; (endpoint: mean survival time, dose: 31.0 mg/kg/injection, schedule: Q01DX001 (ip), vehicle: other) 111 % of control; (endpoint: mean survival time, dose: 47.0 mg/kg/injection, schedule: Q01DX001 (ip), vehicle: other) 109 % of control.
Consider `O=C(Nc1ccc(C2=NCCN2)cc1)c1cccc(C(=O)Nc2ccc(C3=NCCN3)cc2)c1`, for which, under “endpoint: mean survival time, dose: 31.0 mg/kg/injection, schedule: Q01DX Z (ip), vehicle: water”, the T/C is 89 % of control.
